Like-named read-outs stand apart in the source and are kept apart here.
Experiments:
Assay in all cases: stopped-flow CA inhibition assay
Assay type in all cases: biochemical
[1] = biological target: T1, hCA I (Homo sapiens, UniProt P00915)
T1 construct: gene CA1; recombinant, obtained in-house
From the text: stopped-flow CA inhibition assay on hCA I

[2] = biological target: T2, hCA IX (Homo sapiens, UniProt Q16790)
T2 construct: gene CA9; recombinant, obtained in-house
From the text: stopped-flow CA inhibition assay on hCA IX

[3] = biological target: T3, hCA XII (Homo sapiens, UniProt O43570)
T3 construct: gene CA12; recombinant, obtained in-house
From the text: stopped-flow CA inhibition assay on hCA XII

[4] = biological target: T4, hCA II (Homo sapiens, UniProt P00918)
T4 construct: gene CA2; recombinant, obtained in-house
From the text: stopped-flow CA inhibition assay on hCA II

T3 sequence (O43570 25-354): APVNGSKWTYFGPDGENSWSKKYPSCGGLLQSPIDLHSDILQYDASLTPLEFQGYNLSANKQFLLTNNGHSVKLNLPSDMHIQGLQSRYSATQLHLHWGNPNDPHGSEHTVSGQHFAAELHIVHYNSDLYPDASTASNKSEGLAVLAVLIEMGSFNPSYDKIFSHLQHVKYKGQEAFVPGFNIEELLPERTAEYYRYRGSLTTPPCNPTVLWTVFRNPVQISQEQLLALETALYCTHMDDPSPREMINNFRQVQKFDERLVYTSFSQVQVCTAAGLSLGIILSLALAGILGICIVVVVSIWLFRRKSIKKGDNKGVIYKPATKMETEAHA
T1 sequence (P00915 2-261): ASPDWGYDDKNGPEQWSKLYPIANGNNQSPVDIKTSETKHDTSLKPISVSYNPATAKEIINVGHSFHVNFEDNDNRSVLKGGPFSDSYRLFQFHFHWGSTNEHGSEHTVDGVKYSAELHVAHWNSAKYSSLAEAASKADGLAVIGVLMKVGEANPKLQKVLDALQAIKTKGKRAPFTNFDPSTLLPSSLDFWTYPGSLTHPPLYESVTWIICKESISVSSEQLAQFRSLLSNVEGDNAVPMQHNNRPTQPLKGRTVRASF

Ki [1] [nM] | Ki [2] [nM] | Ki [3] [nM] | Ki ([2]; mean of […] assays, errors ±[…]) [nM] | Ki ([3]; mean of […] assays, errors ±[…]) [nM] | Ki [4] [nM] | SMILES
593 | 40.7 | 13 | – | – | – | NS(=O)(=O)c1ccc(CCn2c(SCC(=O)c3ccccc3)nc3ccccc3c2=O)cc1 [compound 2, 4-(2-(4-Oxo-2-((2-oxo-2-phenylethyl)thio)quinazolin-3(4H)-yl)ethyl)benzenesulfonamide]
1450 | 75.2 | 69.6 | – | – | – | NS(=O)(=O)c1ccc(CCn2c(SCC(=O)c3ccc(Br)cc3)nc3ccccc3c2=O)cc1 [compound 3, 4-(2-(2-((2-(4-Bromophenyl)-2-oxoethyl)thio)-4-oxoquinazolin-3(4H)-yl)ethyl)benzenesulfonamide]
– | – | – | 8 | 10.8 | – | NS(=O)(=O)c1ccc(CCn2c(SCC(=O)c3ccc(Cl)cc3)nc3ccccc3c2=O)cc1 [compound 4, 4-(2-(2-((2-(4-Chlorophenyl)-2-oxoethyl)thio)-4-oxoquinazolin-3(4H)-yl)ethyl)benzenesulfonamide]
400 | – | 9.1 | 16.5 | – | – | NS(=O)(=O)c1ccc(CCn2c(SCC(=O)c3ccc(F)cc3)nc3ccccc3c2=O)cc1 [compound 5, 4-(2-(2-((2-(4-Fluorophenyl)-2-oxoethyl)thio)-4-oxoquinazolin-3(4H)-yl)ethyl)benzenesulfonamide]
471 | 25.1 | 85.1 | – | – | – | Cc1ccc(C(=O)CSc2nc3ccccc3c(=O)n2CCc2ccc(S(N)(=O)=O)cc2)cc1 [compound 6, 4-(2-(4-Oxo-2-((2-oxo-2-(p-tolyl)ethyl)thio)quinazolin-3(4H)-yl)ethyl)benzenesulfonamide]
978 | 63.2 | 76.8 | – | – | – | CC(Sc1nc2ccccc2c(=O)n1CCc1ccc(S(N)(=O)=O)cc1)C(=O)c1ccccc1 (stereo not shown) [compound 7, 4-(2-(4-Oxo-2-((1-oxo-1-phenylpropan-2-yl)thio)quinazolin-3(4H)-yl)ethyl)benzenesulfonamide]
– | – | – | 34.5 | 2.4 | – | NC(=O)CSc1nc2ccccc2c(=O)n1CCc1ccc(S(N)(=O)=O)cc1 [compound 8, 8]
460 | 27.3 | 38.4 | – | – | – | NS(=O)(=O)c1ccc(CCn2c(SCC(=O)Nc3ccccc3)nc3ccccc3c2=O)cc1 [compound 9, 9]
697 | 64.9 | 61 | – | – | – | NS(=O)(=O)c1ccc(CCn2c(SCC(=O)Nc3ccc(Br)cc3)nc3ccccc3c2=O)cc1 [compound 10, 10]
726 | 66.8 | 31.6 | – | – | 92 | NS(=O)(=O)c1ccc(CCn2c(SCC(=O)Nc3ccc(Cl)cc3)nc3ccccc3c2=O)cc1 [compound 11, 11]
– | – | 8.7 | 12.7 | – | – | NS(=O)(=O)c1ccc(CCn2c(SCC(=O)Nc3ccc(F)cc3)nc3ccccc3c2=O)cc1 [compound 12, N-(4-fluorophenyl)-2-((4-oxo-3-(4-sulfamoylphenethyl)-3,4-dihydroquinazolin-2-yl)thio)acetamide]
878 | 37.4 | 45.2 | – | – | – | Cc1ccc(NC(=O)CSc2nc3ccccc3c(=O)n2CCc2ccc(S(N)(=O)=O)cc2)cc1 [compound 13, 13]
2570 | 84 | 49.1 | – | – | – | COc1ccc(NC(=O)CSc2nc3ccccc3c(=O)n2CCc2ccc(S(N)(=O)=O)cc2)cc1 [compound 14, 14]
3650 | 35.9 | 59.7 | – | – | – | CCOc1ccc(NC(=O)CSc2nc3ccccc3c(=O)n2CCc2ccc(S(N)(=O)=O)cc2)cc1 [compound 15, 15]
1700 | 24.1 | 22.5 | – | – | – | CC(=O)c1ccc(NC(=O)CSc2nc3ccccc3c(=O)n2CCc2ccc(S(N)(=O)=O)cc2)cc1 [compound 16, 16]
2670 | 100 | 16.9 | – | – | – | COc1cc(NC(=O)CSc2nc3ccccc3c(=O)n2CCc2ccc(S(N)(=O)=O)cc2)cc(OC)c1OC [compound 17, 17]
2050 | 256 | 113 | – | – | – | NS(=O)(=O)c1ccc(CCn2c(SCC(=O)NCc3ccc(F)cc3)nc3ccccc3c2=O)cc1 [compound 18, N-(4-fluorobenzyl)-2-((4-oxo-3-(4-sulfamoylphenethyl)-3,4-dihydroquinazolin-2-yl)thio)acetamide]
5470 | 145 | 97.3 | – | – | – | COc1ccc(CNC(=O)CSc2nc3ccccc3c(=O)n2CCc2ccc(S(N)(=O)=O)cc2)cc1OC [compound 19, 19]
3630 | 18.6 | 66.7 | – | – | – | CC(Sc1nc2ccccc2c(=O)n1CCc1ccc(S(N)(=O)=O)cc1)C(=O)Nc1ccc(Cl)cc1 (stereo not shown) [compound 20, 20]
